Experimental findings from article PMC4549042, “Targeting procaspase-3 with WF-208, a novel PAC-1 derivative, causes selective cancer cell apoptosis” (Journal of Cellular and Molecular Medicine, 2015) are described below.

Where two headings read alike, the source gives them in different places.

One data set relates to human normal cells. Put plainly: MTT cytotoxicity in human normal cells. It counts as cell-based. An excerpt: (§1) Human malignant cell lines, A549, Colo-205, DU145, NCI-H226, Hep-3B, Hep-G2, K562, MCF-7, U-87, GBC-SD, MDA-MB-435S, PC-3, U-937, HL60, SH-SY5Y and human normal cell lines, MCF-10A and L-02, HUVEC were obtained from the American Type Culture Collection (Manassas, VA, USA) and National Center for Medical Culture Collection (Shanghai, China). They were routinely cultured in RPMI 1640, DMEM or DMEM/F12 (Gibco, New York, USA) supplemented with 10% foetal bovine serum (Gibco, New York, USA) and maintained at 37°C in a humidified incubator with 5% CO2.
(§2) Human peripheral blood lymphocytes were obtained as described previously. In brief, after diluting blood with PBS, lymphocytes were isolated by centrifugation over a density gradient of lymphocytes extracting solution for 15 min. at 280 × g. The cells were harvested, washed with PBS twice, and suspended in complete RPMI 1640 (Gibco, New York, USA) with 10% foetal bovine serum (Gibco, New York, USA).
The cell viability effects of the tested compounds were determined by MTT assay. Cells (1 × 10^4 cells/100 μl/well) were seeded into 96-well culture plates. After overnight incubation, cells were treated with various concentrations of compounds for 72 hrs. […] The optical density of each well was measured at 570 nm with a Biotek Synergy TM HT Reader.

In the next data set the test system is PBL. Put plainly: MTT cytotoxicity in human peripheral blood lymphocytes. The following applies: 72 hrs. It counts as cell-based. Here is the method:
as §2
(§3) The cell viability effects of the tested compounds were determined by MTT assay. Cells (1 × 10^4 cells/100 μl/well) were seeded into 96-well culture plates. After overnight incubation, cells were treated with various concentrations of compounds for 72 hrs. Subsequently, 10 μl MTT solution (2.5 mg/ml in PBS) was added to each well, than the cells were incubated for an additional 3–4 hrs at 37°C. After centrifugation (200 × g, 10 min.), the medium with MTT was aspirated, followed by the addition of 100 μl DMSO. The optical density of each well was measured at 570 nm with a Biotek Synergy TM HT Reader.

In data set [1] the test system is HL-60 and U-937 cell lines. Put plainly: Western blot of Bcl-2 family and IAP proteins in HL-60 and U-937. It counts as cell-based, human. The following applies: various concentrations, 24 hrs. The procedure:
Approximately 1 × 10^7 HL-60 cells were gathered after pre-treatment with PAC-1 and WF-208 as previously described. The tumour tissue protein was purified according to the reported methods. Western blotting was performed as previously described. All antibodies were purchased from Cell Signaling Technology. In brief, an equal amount of total protein extracts from cultured cells or tissues were fractionated by 10–15% SDS-PAGE and electrically transferred onto polyvinylidene difluoride (PVDF) membranes. Different primary antibodies and corresponding horseradish peroxidase-conjugated secondary antibodies were used to detect the proteins. The bound secondary antibodies on the PVDF membrane were reacted with ECL™ Western Blotting Reagents detection reagents (Thermo Fisher, Rockford, USA) and exposed to X-ray films. Results were normalized to the internal control β-actin.

The subject of the next data set is PC-3 xenograft. Put plainly: Human prostatic carcinoma PC-3 xenograft mouse model. It counts as in vivo. The procedure: To determine the anti-tumour activity of WF-208 in vivo, viable human prostate cancer PC-3 cells (5 × 10^6/100 μl PBS per mouse) were subcutaneously (s.c.) injected into the right flank of 7- to 8-week old male SCID mice. When the average tumour volume reached 100 mm^3, mice were randomly divided into various treatment and control group (eight mice per group). Tumour size was measured once every 2 days with a calliper (calculated volume = shortest diameter^2 × longest diameter/2). Body weight, diet consumption and tumour size were recorded once every 2 days. After 2 weeks, mice were killed and tumours were excised and stored at −80°C until further analysis.

The test system of data set [2] is human malignant cell lines. Put plainly: MTT cytotoxicity in fifteen human malignant cell lines. It counts as cell-based. Particulars: for IC50: Homo sapiens, MTT, 72 hrs.
Source text: as §1, §3

For data set [3], the system named is procaspase-3-silenced HL-60 cells. Put plainly: Cytotoxicity in procaspase-3 silenced HL-60 cells. It counts as cell-based, human. The following applies: different concentrations, 24 hrs, vs scrambled siRNA control. Here is the method:
The cell viability effects of the tested compounds were determined by MTT assay. Cells (1 × 10^4 cells/100 μl/well) were seeded into 96-well culture plates. […] Subsequently, 10 μl MTT solution (2.5 mg/ml in PBS) was added to each well, than the cells were incubated for an additional 3–4 hrs at 37°C. After centrifugation (200 × g, 10 min.), the medium with MTT was aspirated, followed by the addition of 100 μl DMSO. The optical density of each well was measured at 570 nm with a Biotek Synergy TM HT Reader.
HL-60 cells were transfected with procaspase-3 siRNA (Invitrogen, New York, USA, 100 nmol/l final concentration, Sense siRNA Sequence: GUCUAACUGGAAAACCCAAtt Antisense siRNA Sequence: UUGGGUUUUCCAGUUAGACtt) by Lipofectamine 2000 (Invitrogen) according to the manufacturer’s instructions. Scrambled siRNA (Invitrogen) was control. The cDNA of human procaspase-3 was cloned into pIRES2-EGFP expression vector, and procaspase-3 and EGFP genes were separately expressed. The pIRES2-EGFP and pIRES2-EGFP-procaspase-3 were transiently transfected into MCF-7 cells. Expression of procaspase-3 was verified by western blotting.

The mark [4] stands for this setting: Western blot of tumour tissue after drug exposure.

In general, IC50 refers to the concentration that inhibits the measured activity by half. On to `O=C(CN1CCN(Cc2nc(-c3ccc(COc4ccc(Cl)cc4)cc3)no2)CC1)N/N=C/c1ccc(OCc2csc(Cc3ccc4c(c3)OCO4)n2)cc1O` [C2], for which the IC50 in the data set on human normal cells (Figure 3 panel D, read-out: Mean (IC50) of human normal cells) is 348 µM; in the data set with human normal cells (text b44, read-out: mean IC50 value on three different normal cells), 216 µM; with PBL, 743 µM; in data set [2] (range over the cell lines, read-out: IC50 values against tumour cells), 0.08 to 12.8 µM; in data set [2] (read-out: overall mean IC50 value in the fifteen malignant cell lines) it was 1.66 µM. In addition, the “expression of Bcl-2 family members Bcl-2, Bcl-xl, Bax and BID” value in data set [1] is “not changed”. Moreover, the “expression of XIAP and survivin” value in data set [1] is “significantly down-regulated”. In addition, the “influence on body weight” value in the data set on PC-3 xenograft (2.5 mg/kg i.v., 15 days) is reported as “minimal influence”. In the data set with PC-3 xenograft (2.5 mg/kg i.v., 15 days), the “tumour volume compared with control group” value is “significantly reduced”. For the same compound, in the data set with PC-3 xenograft (setting [4]), the “expression of activated caspase-3 and cleaved PARP in tumour tissue” value is recorded as “increased”. The “expression of survivin and XIAP in tumour tissue” value in the data set with PC-3 xenograft (setting [4]) was “decreased”. For the same compound, the “fold increase of cytotoxicity (mean IC50) compared with PAC-1” value in data set [2] (fifteen malignant cell lines) is listed as roughly 20 fold. In data set [3], the “cytotoxic effect in procaspase-3-silenced HL-60 cells” value is recorded as “less than control HL-60 cells”.
